Measured values from BindingDB's records for patent US8962648 (Oncotherapy Science, 2015).
Several values for one entry are separate records, joined by “and”; a condition that tells them apart may be missing. Identical values can stand only once.

Target: T1, Lymphokine-activated killer T-cell-originated protein kinase (Homo sapiens, UniProt Q96KB5)
T1 sequence (Q96KB5 whole entry): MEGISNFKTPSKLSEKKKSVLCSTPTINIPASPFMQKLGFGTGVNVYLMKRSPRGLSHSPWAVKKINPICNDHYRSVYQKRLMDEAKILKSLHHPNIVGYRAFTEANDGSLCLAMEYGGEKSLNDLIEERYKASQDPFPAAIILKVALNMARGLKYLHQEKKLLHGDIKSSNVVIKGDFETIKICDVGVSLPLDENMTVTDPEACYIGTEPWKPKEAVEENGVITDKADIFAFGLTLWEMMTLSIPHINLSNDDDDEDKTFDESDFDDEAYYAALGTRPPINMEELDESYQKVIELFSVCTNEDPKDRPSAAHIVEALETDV
Assay: Kinase Assay
Details: pH 7.4; 25 °C
Protocol: PBK activity was determined in the presence or absence of compounds using fluorescein isothiocyanate-labeled (FITC-labeled) histone H3 peptide as a substrate. […] The serially diluted compounds, 0.8 ng/micro-L PBK (Carna Biosciences) and 100 nM FITC-labeled histone H3 peptide were reacted in a reaction buffer (20 mM HEPES, 0.01% Tween-20, 0.3 mM MgCl2, 2 mM dithiothreitol, 50 micro-M ATP, pH 7.4) at room temperature for 1 hour. The reaction was stopped by the addition of three fold assay volume of progressive binding solution. Following 0.5 hour incubation at room temperature.

SMILES | IC50
CN(C)CC(C)(C)c1ccc(-c2c(O)ccc3[nH]c(=O)c4sccc4c23)cc1 [US8962648, 308] | 2.8 nM
CC[C@H](N)c1ccc(-c2c(OC)ccc3[nH]c(=O)c4sccc4c23)cc1 [US8962648, 1121] | 2.9 nM
CC(c1ccc(-c2c(O)ccc3[nH]c(=O)c4sccc4c23)cc1F)N(C)C (centres undefined) [US8962648, 349] | 1.9 nM
NCc1ccc(-c2c(O)cc(Br)c3[nH]c(=O)c4sccc4c23)cc1 [US8962648, 270] | 31 nM
CCNC(C)c1ccc(-c2c(O)ccc3[nH]c(=O)c4sccc4c23)cc1 (centres undefined) [US8962648, 385] | 3.9 nM
Cc1cc2c(s1)c(=O)[nH]c1ccc(O)c(-c3ccc(CN)cc3)c12 [US8962648, 95] | 4.4 nM
NCC1(c2ccc(-c3c(O)ccc4[nH]c(=O)c5sccc5c34)cc2)CCC1 [US8962648, 1300] | 1.7 nM
CC(CN)c1ccc(-c2c(O)ccc3[nH]c(=O)c4sccc4c23)cc1Cl (centres undefined) [US8962648, 1280] | 10 nM
C[C@H](CN(C)C)c1ccc(-c2c(O)ccc3[nH]c(=O)c4sccc4c23)cc1 [US8962648, 1172] | 4 nM
CCNCc1ccc(-c2c(O)ccc3[nH]c(=O)c4sccc4c23)cc1 [US8962648, 267] | 2 nM
COc1cc(C)c2[nH]c(=O)c3sccc3c2c1-c1ccc(C2(CN)CC2)cc1 [US8962648, 1251] | 55 nM
N#Cc1ccc2[nH]c(=O)c3sccc3c2c1-c1ccc(CN)cc1 [US8962648, 326] | 13 nM
N#CCc1ccc(-c2c(O)ccc3[nH]c(=O)c4sccc4c23)cc1 [US8962648, 81] | 12 nM
NCc1ccc(-c2c(O)ccc3[nH]c(=O)c4sccc4c23)s1 [US8962648, 266] | 0.78 nM
COc1ccc2[nH]c(=O)c3sccc3c2c1-c1ccc(C(C)N2CCCC2)cc1 (centres undefined) [US8962648, 216] | 21 nM
Cc1cc(O)c(-c2ccc([C@@H](C)CN)cc2)c2c1[nH]c(=O)c1sc(Cl)cc12 [US8962648, 1353] | 4 nM
O=c1[nH]c2ccc(O)c(-c3ccc4c(c3)CNCC4)c2c2ccsc12 [US8962648, 353] | 2 nM
CCC(C#N)c1ccc(-c2c(O)ccc3[nH]c(=O)c4sccc4c23)cc1 (centres undefined) [US8962648, 1162] | 13 nM
CC(c1ccc(-c2c(O)c(F)c(F)c3[nH]c(=O)c4sccc4c23)cc1)N(C)C (centres undefined) [US8962648, 341] | 34 nM
Cc1cc(O)c(-c2ccc(C(C)(C)N)cc2)c2c1[nH]c(=O)c1sccc12 [US8962648, 1330] | 8.3 nM
CC(C)(CN)c1ccc(-c2c(O)ccc3[nH]c(=O)c4sccc4c23)cc1F [US8962648, 1271] | 1 nM
CN[C@@H](C)c1ccc(-c2c(OC)ccc3[nH]c(=O)c4sccc4c23)cc1 [US8962648, 1064] | 2.5 nM
O=c1[nH]c2ccc(O)c(-c3ccc(CN4CCC(O)C4)c(F)c3)c2c2ccsc12 (centres undefined) [US8962648, 278] | 0.97 nM
NC1Cc2ccc(-c3c(O)ccc4[nH]c(=O)c5sccc5c34)cc2C1 (centres undefined) [US8962648, 345] | 1.2 nM
CNC[C@@H](C)c1ccc(-c2c(O)ccc3[nH]c(=O)c4sccc4c23)cc1 [US8962648, 1197] | 2.8 nM

SMILES | IC50
CC(C)(CN)c1ccc(-c2c(O)cc(Cl)c3[nH]c(=O)c4sccc4c23)cc1 [US8962648, 1260] | 75 nM
CS(=O)(=O)Nc1ccc(-c2c(O)ccc3[nH]c(=O)c4sccc4c23)cc1 [US8962648, 77] | 2.6 nM
CCC(CN)c1ccc(-c2c(OC)cc(C)c3[nH]c(=O)c4sccc4c23)cc1 (centres undefined) [US8962648, 1277] | 63 nM
NCc1ccc(-c2c(O)cc(F)c3[nH]c(=O)c4sccc4c23)cc1 [US8962648, 256] | 2.5 nM
CN[C@H](C)c1ccc(-c2c(OC)cc(C)c3[nH]c(=O)c4sccc4c23)cc1 [US8962648, 1265] | 67 nM
CC(c1ccc(-c2c(O)ccc3[nH]c(=O)c4sccc4c23)cc1)N1CCCCC1 (centres undefined) [US8962648, 262] | 4.3 nM
NCCCc1ccc(-c2c(O)ccc3[nH]c(=O)c4sccc4c23)cc1 [US8962648, 273] | 0.74 nM
C[C@@H](N)c1ccc(-c2c(O)cc(Br)c3[nH]c(=O)c4sccc4c23)cc1 [US8962648, 1123] | 33 nM
CC(=O)c1ccc(-c2c(O)ccc3[nH]c(=O)c4sccc4c23)cc1 [US8962648, 296] | 23 nM
COc1cc(Cl)c2[nH]c(=O)c3sccc3c2c1-c1ccc(C2(CN)CCC2)cc1 [US8962648, 1321] | 96 nM
CC[C@H](c1ccc(-c2c(O)ccc3[nH]c(=O)c4sccc4c23)cc1)N(C)C [US8962648, 1151] | 2.5 nM
NCC1(c2ccc(-c3c(O)cc(Br)c4[nH]c(=O)c5sccc5c34)cc2)CC1 [US8962648, 1401] | 51 nM
Cc1cc(-c2c(O)ccc3[nH]c(=O)c4sccc4c23)ccc1NS(C)(=O)=O [US8962648, 254] | 3 nM
NCCc1ccc(-c2c(O)ccc3[nH]c(=O)c4sccc4c23)cc1 [US8962648, 176] | 1.2 nM and 1.1 nM
COc1ccc2[nH]c(=O)c3sccc3c2c1-c1ccc(CCN)c(F)c1 [US8962648, 265] | 3.8 nM
CS(=O)(=O)N1CCN(c2ccc(-c3c(O)ccc4[nH]c(=O)c5sccc5c34)cc2)CC1 [US8962648, 112] | 12 nM
CC(C)NCc1ccc(-c2c(O)ccc3[nH]c(=O)c4sccc4c23)cc1 [US8962648, 229] | 4.2 nM
CC[C@@H](N)c1ccc(-c2c(O)cc(Cl)c3[nH]c(=O)c4sccc4c23)cc1 [US8962648, 1159] | 26 nM
NCC1(c2ccc(-c3c(O)cc(Cl)c4[nH]c(=O)c5sccc5c34)cc2)CC1 [US8962648, 1116] | 22 nM
CCC(N)c1ccc(-c2c(O)ccc3[nH]c(=O)c4sccc4c23)cc1 (centres undefined) [US8962648, 336] | 0.82 nM
Cc1cc(O)c(-c2ccc([C@@H](C)CN)cc2)c2c1[nH]c(=O)c1sc(F)cc12 [US8962648, 1383] | 3.7 nM
CC(C)(CN)c1ccc(-c2c(O)ccc3[nH]c(=O)c4sccc4c23)cc1 [US8962648, 277] | 0.67 nM
CC(O)c1ccc(-c2c(O)ccc3[nH]c(=O)c4sccc4c23)cc1 (centres undefined) [US8962648, 313] | 2 nM
CN(C)CC1(c2ccc(-c3c(O)ccc4[nH]c(=O)c5sccc5c34)cc2)CC1 [US8962648, 379] | 3.6 nM
O=c1[nH]c2ccc(O)c(-c3ccc(S(=O)(=O)NCCCl)cc3)c2c2c1CCC2 [US8962648, 1145] | 13 nM

SMILES | IC50
CC[C@H](NC)c1ccc(-c2c(O)cc(Cl)c3[nH]c(=O)c4sccc4c23)cc1 [US8962648, 1154] | 9.4 nM
C[C@H](N)c1ccc(-c2c(O)ccc3[nH]c(=O)c4sccc4c23)cc1 [US8962648, 233] | 0.81 nM
N[C@H]1CCN(c2ccc3[nH]c(=O)c4sc(-c5ccc(O)cc5)cc4c3c2)C1 [US8962648, 51] | 78 nM
CN(C)Cc1ccc(-c2c(O)ccc3[nH]c(=O)c4sccc4c23)cc1 [US8962648, 165] | 6.9 nM
CNC[C@@H](C)c1ccc(-c2c(O)cc(C)c3[nH]c(=O)c4sccc4c23)cc1 [US8962648, 1215] | 60 nM
CC(N)Cc1ccc(-c2c(O)cc(Cl)c3[nH]c(=O)c4sccc4c23)cc1 (centres undefined) [US8962648, 1106] | 41 nM
CCN(CC)CCNCCCOc1ccc(-c2c(OC)ccc3[nH]c(=O)c4sccc4c23)cc1 [US8962648, 145] | 47 nM
Cc1cc2c(s1)c(=O)[nH]c1c(C)cc(O)c(-c3ccc([C@@H](C)CN)cc3)c12 [US8962648, 1340] | 12 nM
COc1cc(C)c2[nH]c(=O)c3sc(C)cc3c2c1-c1ccc([C@@H](C)CN)cc1 [US8962648, 1341] | 38 nM
CN(C)S(=O)(=O)c1ccc(-c2c(O)ccc3[nH]c(=O)c4sccc4c23)cc1 [US8962648, 304] | 45 nM
O=c1[nH]c2ccc(O)c(-c3ccc(S(=O)(=O)NCCCl)cc3)c2c2ccsc12 [US8962648, 332] | 23 nM
NCCc1ccc(-c2c(O)cc(Cl)c3[nH]c(=O)c4sccc4c23)cc1Cl [US8962648, 1268] | 3.9 nM
CC(N)Cc1ccc(-c2c(O)ccc3[nH]c(=O)c4sccc4c23)cc1 (centres undefined) [US8962648, 1095] | 1.3 nM
N#CCCc1ccc(-c2c(O)ccc3[nH]c(=O)c4sccc4c23)cc1 [US8962648, 290] | 3.2 nM
O=c1[nH]c2ccc(O)c(-c3ccc(S(=O)(=O)NCCBr)cc3)c2c2ccsc12 [US8962648, 210] | 11.3 nM
CC[C@H](N)c1ccc(-c2c(O)ccc3[nH]c(=O)c4sccc4c23)cc1 [US8962648, 1120] | 0.88 nM
CC(CBr)NS(=O)(=O)c1ccc(-c2c(O)ccc3[nH]c(=O)c4sccc4c23)cc1 (centres undefined) [US8962648, 1062] | 31 nM
O=c1[nH]c2ccc(O)c(-c3ccc(S(=O)(=O)NCCBr)c(F)c3)c2c2ccsc12 [US8962648, 297] | 13 nM
COc1ccc2[nH]c(=O)c3sccc3c2c1-c1ccc(CCN)cc1 [US8962648, 169] | 22 nM
CNC[C@H](C)c1ccc(-c2c(OC)ccc3[nH]c(=O)c4sccc4c23)cc1 [US8962648, 1189] | 3 nM
CC(c1ccc(-c2c(O)ccc3[nH]c(=O)c4sccc4c23)cc1)N(C)C (centres undefined) [US8962648, 192] | 1.6 nM and 1.9 nM
NS(=O)(=O)c1ccc(-c2c(O)ccc3[nH]c(=O)c4sccc4c23)cc1 [US8962648, 65] | 1.8 nM
COc1ccc2[nH]c(=O)c3sccc3c2c1-c1ccc(CN2CCC(CNC(=O)OC(C)(C)C)CC2)cc1 [US8962648, 139] | 9.4 nM
CCC(c1ccc(-c2c(O)ccc3[nH]c(=O)c4sccc4c23)cc1)N(CC)CC (centres undefined) [US8962648, 338] | 3.7 nM
